Columns and labels:
[1] = system: primary RGCs; assay: Primary RGC survival in neurotrophin-depleted media with kinase inhibitors (calcein AM)
Description: To determine the neuroprotective effects of the broad-spectrum kinase inhibitors, sunitinib and VX680, primary RGCs were plated in neurotrophin-depleted media and stained with calcein AM at 72 hours in the absence (vehicle) or presence of 1 μM sunitinib (FIG. 1, Panel A).
Retinas were isolated from postnatal 0-5-d mice and dissociated with papain. Microglia were immunodepleted with anti-CD11b conjugated Dynabeads (Life Technologies). The suspension of retinal cells was immunopanned on plates preconjugated with anti-Thy1.2 antibody (Serotec, MCA028) and goat antimouse IgM (Jackson Immunoresearch) at room temperature (RT). After washing, retinal ganglion cellS (RGCs) were released from the plate by a cell lifter, counted, and seeded at a density of 10,000 per well in 96-well plates in the media composed of Neurobasal (Life Technologies), B27, N2 supplement, Lglutamine, and penicillin/streptomycin. After a 72-h culture at 37° C., RGCs were stained with calceinAM (acetomethoxy derivate of calcein), ethidium homodimer, and Hoechst 33342. Images were taken from portions of each well with a Cellomics ArrayScan VTI HCS Reader (Thermo Fisher), and cell survival was quantified using the Cellomics Neuronal Profiling bioapplication. As indicated, RGC viability was alternatively measured by Cell-Titer-Glo (Promega) luminescence.

[2] = system: RGCs; assay: RGCs transfected with MAP3K12/MAP3K13 siRNA then plated in sunitinib or VX680, survival at 72 hours; type: cell-based, mice; details: RGCs transfected with 10 nM siRNA against MAP3K12 and MAP3K13 alone or in combination, 0, 12, 37, 111, 333, 1000 nM drug (FIG. 3F)
Description: RGCs were transfected with 10 nM siRNA against MAP3K12 and MAP3K13 alone or in combination and then plated in 0, 12, 37, 111, 333, and 1000 nM sunitinib (FIG. 3F on left) or VX680 (FIG. 3F on right). Survival at 72 hours is shown.

SMILES: Cc1cc(Nc2cc(N3CCN(C)CC3)nc(Sc3ccc(NC(=O)C4CC4)cc3)n2)n[nH]1 [VX680]
- survival of primary RGCs at higher doses ([1]; at higher doses (FIG. 1B)): greater number of viable cells
- survival of primary RGCs in response to increasing doses ([1]; increasing doses (FIG. 1B)): neuroprotective
- cell viability, survival at 72 hours [2]: higher cell viability
